Data reported in patent publication US10000471B2, “Pyrazole P38 map kinase inhibitors” (Respivert Limited, priority 2010, dated 2018).

What was measured:
[1] = molecular target: T1, p38 MAPKα isoform (MAPK14) (Homo sapiens, UniProt Q16539); experiment: Enzyme inhibition assay (FRET, Z-LYTE), p38 MAPKα via MAPKAP-K2 activation; type: biochemical; settings: read-out: Enzyme Inhibition IC50 p38α
T1 construct: purchased Invitrogen
Procedure, shortened: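 Z-LYTE FRET format, in which protease cleaves only non-phosphorylated peptide, read after 1 h development. Compound was mixed with p38 MAPKα for 2 h at RT, and inhibition was gauged from MAPKAP-K2 activation/phosphorylation rather than directly. Percent inhibition against an uninhibited control was fitted to give IC50.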

p38 MAPKγ (MAPK12) = molecular target: T2, p38 MAPKγ (MAPK12) (Homo sapiens, UniProt P53778); experiment: Enzyme inhibition assay (FRET, Z-LYTE), p38 MAPKγ; type: biochemical; settings: read-out: Enzyme Inhibition IC50 p38γ
T2 construct: purchased Invitrogen
T2 sequence (P53778 1-367): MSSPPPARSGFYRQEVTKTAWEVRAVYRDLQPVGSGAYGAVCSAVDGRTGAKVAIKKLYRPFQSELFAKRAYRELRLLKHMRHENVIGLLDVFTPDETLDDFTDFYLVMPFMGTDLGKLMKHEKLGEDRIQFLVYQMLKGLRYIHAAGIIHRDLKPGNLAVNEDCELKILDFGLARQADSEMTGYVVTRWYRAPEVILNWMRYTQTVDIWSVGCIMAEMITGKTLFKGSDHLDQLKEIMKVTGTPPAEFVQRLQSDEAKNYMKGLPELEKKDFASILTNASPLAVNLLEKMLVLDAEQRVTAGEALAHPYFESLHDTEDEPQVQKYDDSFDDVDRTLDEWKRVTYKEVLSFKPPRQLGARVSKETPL
Procedure, shortened: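 Z-LYTE FRET readout: after 1 h kinase reaction (ATP 100 μM, peptide 2 μM) following 2 h RT enzyme–compound preincubation in HEPES, protease cleaves only unphosphorylated peptide. Percent inhibition from donor/acceptor ratio relative to control; IC50 fitted from the curve.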

[2] = test system: TNFα release in THP-1 cells; experiment: LPS-induced TNFα release in THP-1 cells; type: cell-based, human; settings: Homo sapiens
Procedure, shortened: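 IC50 derived from concentration-response of TNFα inhibition relative to vehicle, with TNFα quantified by sandwich ELISA in supernatants. THP-1 cells were challenged 4 hr with LPS (E. coli, 3 μg/mL).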

[3] = test system: TNFα release in d-U937 cells; experiment: LPS-induced TNFα release in d-U937 cells; type: cell-based, human; settings: Homo sapiens, dU937, relative to 10 μg/mL BIRB796, read-out: LPS/TNFα REC50 d-U937
Procedure, shortened: (§1)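 Sandwich ELISA of TNFα and IL-8 in supernatants after 4 hr 0.1 μg/mL LPS (E. coli O111:B4) challenge of U937 cells differentiated with PMA 100 ng/ml for 48–72 hr, compound added 2 hr beforehand. IL-8: IC50 from inhibition versus vehicle; TNFα: REC50 from inhibition as percentage of 10 μg/mL BIRB796 effect.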

[4] = test system: IL-8 release in d-U937 cells; experiment: LPS-induced IL-8 release in d-U937 cells; type: cell-based, human; settings: Homo sapiens, dU937
Procedure, shortened: as §1

[5] = test system: ICAM-1 induction in BEAS2B cells; experiment: Poly I:C-induced ICAM-1 induction in BEAS2B cells; type: cell-based, human; settings: Homo sapiens, BEAS-2B, read-out: PolyIC/ICAM1 IC50 BEAS2B
Procedure, shortened: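 IC50 reflects inhibition of cell-surface ICAM-1 relative to vehicle, read by ELISA (OD450 against 655 nm) and divided by crystal violet OD595 for cell number. Readings were taken 18 hr after transfection of 1 μg/mL poly I:C into BEAS2B cells. Compound was added 2 hr before stimulation.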

[6] = test system: Differentiated U937 cells; experiment: Cell viability MTT assay; type: cell-based, human; settings: negative = apparent increase in viability; for MTT Assay (Viability) 4 h d-U937, percentage loss of cell viability: 4 hr in 5% FCS; for MTT Assay (Viability) 24 h d-U937, percentage loss of cell viability: 24 h in 10% FCS
Procedure, shortened: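 Differentiated U937 cells pre-incubated with compound either 4 hr in 5% FCS or 24 h in 10% FCS, then 1 hr MTT. Formazan dissolved in DMSO, absorbance at 550 nm. Percentage viability loss relative to 0.5% DMSO vehicle; apparent increases appear as negative percentages.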

T1 sequence (Q16539 whole entry, canonical isoform): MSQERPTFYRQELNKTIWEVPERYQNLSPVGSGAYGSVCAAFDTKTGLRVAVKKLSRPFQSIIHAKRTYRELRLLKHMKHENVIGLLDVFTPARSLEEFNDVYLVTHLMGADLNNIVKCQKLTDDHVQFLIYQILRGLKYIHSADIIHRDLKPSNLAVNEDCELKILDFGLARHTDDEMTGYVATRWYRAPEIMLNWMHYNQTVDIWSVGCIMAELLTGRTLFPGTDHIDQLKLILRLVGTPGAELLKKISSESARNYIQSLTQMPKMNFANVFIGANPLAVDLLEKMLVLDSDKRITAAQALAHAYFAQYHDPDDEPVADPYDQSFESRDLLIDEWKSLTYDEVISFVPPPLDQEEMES

Row | IC50 [1] | IC50 (p38 MAPKγ (MAPK12)) | IC50 [2] | EC50 [3] | IC50 [4] | SMILES | IC50 [5] | MTT Assay (Viability) 4 h d-U937, percentage loss of cell viability [6] | MTT Assay (Viability) 24 h d-U937, percentage loss of cell viability [6]
1 | 20.9 nM | 38.7 nM | 0.3 nM | 0.9 nM | 1.1 nM | CN(C)CC(=O)Nc1cc(Oc2ccc(NC(=O)Nc3cc(C(C)(C)C)nn3-c3ccc(CO)cc3)c(Cl)c2Cl)ccn1 [Example 46, N-(4-(4-(3-(3-tert-butyl-1-(4-hydroxymethylphenyl)-1H-pyrazol-5-yl)ureido)-2,3-dichlorophenoxy)pyridin-2-yl)-2-(dimethylamino) acetamide] | 2.4 nM | −12.6% | 82.7%
2 | 2.2 nM | 5.9 nM | 0.5 nM | 1.6 nM | 8.2 nM | CN(C)CCCC(=O)Nc1cc(Oc2ccc(NC(=O)Nc3cc(C(C)(C)C)nn3-c3ccc(CO)cc3)c(Cl)c2Cl)ccn1 [Example 47, N-(4-(4-(3-(3-tert-butyl-1-(4-hydroxymethylphenyl)-1H-pyrazol-5-yl)ureido)-2,3-dichlorophenoxy)pyridin-2-yl)-4-(dimethylamino) butanamide] | 6.4 nM | −42.5% | 85.0%

More lines, now with the values behind:

Row | SMILES | IC50 [1] | IC50 (p38 MAPKγ (MAPK12)) | IC50 [2] | EC50 [3] | IC50 [4] | IC50 [5] | MTT Assay (Viability) 4 h d-U937, percentage loss of cell viability [6] | MTT Assay (Viability) 24 h d-U937, percentage loss of cell viability [6]
3 | COc1ccc(-n2nc(C(C)(C)C)cc2NC(=O)Nc2ccc(Oc3ccnc(NC(=O)CN(C)C)c3)c(Cl)c2Cl)cc1 [Example 43, N-(4-(4-(3-(3-tert-butyl-1-(4-methoxyphenyl)-1H-pyrazol-5-yl)ureido)-2,3-dichlorophenoxy)pyridin-2-yl)-2-(dimethylamino)acetamide] | 27.5 nM | 78.1 nM | 0.4 nM | 0.9 nM | 1.3 nM | 2.3 nM | −18.7% | 79.1%
4 | COCC(=O)Nc1cc(Oc2ccc(NC(=O)Nc3cc(C(C)(C)C)nn3-c3ccc(OC)cc3)c(Cl)c2Cl)ccn1 [Example 44, N-(4-(4-(3-(3-tert-butyl-1-(4-methoxyphenyl)-1H-pyrazol-5-yl)ureido)-2,3-dichlorophenoxy)pyridin-2-yl)-2-methoxyacetamide] | 7.9 nM | 48.4 nM | 1.8 nM | 2.2 nM | 20.7 nM | 0.9 nM | −25.9% | 87.1%
5 | COc1ccc(-n2nc(C(C)(C)C)cc2NC(=O)Nc2ccc(Oc3ccnc(NC(=O)CN4CCOCC4)c3)c(Cl)c2Cl)cc1 [Example 45, N-(4-(4-(3-(3-tert-butyl-1-(4-methoxyphenyl)-1H-pyrazol-5-yl)ureido)-2,3-dichlorophenoxy)pyridin-2-yl)-2-morpholinoacetamide] | 27.4 nM | 84.7 nM | 0.8 nM | 0.7 nM | 1 nM | 9 nM | −4.8% | 56.2%
6 | CC(C)(C)c1cc(NC(=O)Nc2ccc(Oc3ccnc(NC(=O)CN4CCOCC4)c3)c(Cl)c2Cl)n(-c2ccc(CO)cc2)n1 [Example 48, N-(4-(4-(3-(3-tert-butyl-1-(4-hydroxymethylphenyl)-1H-pyrazol-5-yl)ureido)-2,3-dichlorophenoxy)pyridin-2-yl)-2-morpholino-acetamide] | 6.3 nM | 22.4 nM | 0.4 nM | 1.1 nM | 5.1 nM | 2.2 nM | 12.5% | 84.1%
